The source of these data is patent US20230226072A1 (priority 2020, published 2023).

The subject of this test is Influenza A N1H1. In words: In vivo antiviral efficacy in Balb/c mice, lung virus titer by TCID50 assay. The following applies: methylene blue replaced by riboflavin; prophylactic and therapeutic application. Here is the method: Mice received a daily MB-dose of 5 mg/kg based on a daily drinking volume of ˜5-6 ml and a body weight of 25-35 g. The control group received drinking water with saccharin but without methylene blue.
Mice were euthanized and lungs were removed on day 3 post challenge with influenza H1N1 virus. These tissue samples were stored at <−60° C. until they were transferred into homogenization tubes containing 1 ml cell medium supplemented with antibiotics. The lungs were homogenized two times at 5000 rpm for twenty seconds with 10 seconds pause between the intervals with a tissue homogenizer. The infectious H1N1 virus titer in homogenized lung samples was determined by a TCID50 assay performed by titration on Madin-Darby Canine Kidney (MDCK) cells as described above.

As to `Cc1cc2nc3c(=O)[nH]c(=O)nc-3n(C[C@H](O)[C@H](O)[C@H](O)CO)c2cc1C` [riboflavin, 7,8-dimethyl-10-[(2S,3S,4R)-2,3,4,5-tetrahydroxypentyl]benzo[g]pteridine-2,4-dione], the “viricidal efficacy, lung virus titer (TCID50 assay), expected” value was “Analogous results are expected”.
